Several values for one entry are separate records, joined by “and”; a condition that tells them apart may be missing. Equal values may be shown once.
Test system: KRAS PDC tumor spheroids (HUVEC+MSC), viability
Experiment: Anticancer human tumor 254851-301-R-J1-PDC patient-derived colon carcinoma cell line growth inhibition [KRAS2]
Conditions: for viability, T/C: stronger effect = lower value
In short: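 Combination screen of spheroid viability in tumor-cell co-cultures with endothelial (HUVEC) and mesenchymal stem cell stroma. Each agent was tested in half-log dilutions, topping at clinical Cmax or at 10 microM without a known Cmax.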

[1] = curve of first compound, second compound 0.1 µM
[2] = curve of first compound, second compound 0.316 µM
[3] = curve of first compound, second compound 1 µM
[4] = curve of first compound, second compound 3.16 µM
[5] = curve of first compound, second compound 10 µM
[6] = second compound 0.1 µM, first compound 0.0316 µM
[7] = second compound 0.1 µM, first compound 0.1 µM
[8] = second compound 0.1 µM, first compound 0.316 µM
[9] = second compound 0.1 µM, first compound 1 µM
[10] = second compound 0.1 µM, first compound 3.16 µM
[11] = second compound 0.1 µM, first compound 10 µM
[12] = second compound 0.316 µM, first compound 0.0316 µM
[13] = second compound 0.316 µM, first compound 0.1 µM
[14] = second compound 0.316 µM, first compound 0.316 µM
[15] = second compound 0.316 µM, first compound 1 µM
[16] = second compound 0.316 µM, first compound 3.16 µM
[17] = second compound 0.316 µM, first compound 10 µM
[18] = second compound 1 µM, first compound 0.0316 µM
[19] = second compound 1 µM, first compound 0.1 µM
[20] = second compound 1 µM, first compound 0.316 µM
[21] = second compound 1 µM, first compound 1 µM
[22] = second compound 1 µM, first compound 3.16 µM
[23] = second compound 1 µM, first compound 10 µM
[24] = second compound 3.16 µM, first compound 0.0316 µM
[25] = second compound 3.16 µM, first compound 0.1 µM
[26] = second compound 3.16 µM, first compound 0.316 µM
[27] = second compound 3.16 µM, first compound 1 µM
[28] = second compound 3.16 µM, first compound 3.16 µM
[29] = second compound 3.16 µM, first compound 10 µM
[30] = second compound 10 µM, first compound 0.0316 µM
[31] = second compound 10 µM, first compound 0.1 µM
[32] = second compound 10 µM, first compound 0.316 µM
[33] = second compound 10 µM, first compound 1 µM
[34] = second compound 10 µM, first compound 3.16 µM
[35] = second compound 10 µM, first compound 10 µM
[36] = compound alone, run of 07/12/2021
[37] = compound alone, run of 07/19/2021
[38] = compound alone, run of 07/26/2021
[39] = second compound 0.1 µM, first compound 0.00316 µM
[40] = second compound 0.1 µM, first compound 0.01 µM
[41] = second compound 0.316 µM, first compound 0.00316 µM
[42] = second compound 0.316 µM, first compound 0.01 µM
[43] = second compound 1 µM, first compound 0.00316 µM
[44] = second compound 1 µM, first compound 0.01 µM
[45] = second compound 3.16 µM, first compound 0.00316 µM
[46] = second compound 3.16 µM, first compound 0.01 µM
[47] = second compound 10 µM, first compound 0.00316 µM
[48] = second compound 10 µM, first compound 0.01 µM
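Note: spheroids exposed to compounds for seven days before readout.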
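Throughout, for viability, T/C: 100% = DMSO vehicle control luminescence of the spheroids.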

Row | Compound | IC50 [1] [µM] | IC50 [2] [µM] | IC50 [3] [µM] | IC50 [4] [µM] | IC50 [5] [µM] | viability, T/C [6] [%] | viability, T/C [7] [%] | viability, T/C [8] [%] | viability, T/C [9] [%] | viability, T/C [12] [%] | viability, T/C [13] [%] | viability, T/C [14] [%] | viability, T/C [15] [%] | viability, T/C [18] [%] | viability, T/C [19] [%] | viability, T/C [20] [%] | viability, T/C [24] [%] | viability, T/C [25] [%] | viability, T/C [30] [%] | viability, T/C [31] [%] | further results
1 | COC(=O)c1ccc2c(C(=Nc3ccc(N(C)C(=O)CN4CCN(C)CC4)cc3)c3ccccc3)c(O)[nH]c2c1 + COc1cc2nc(C)nc(NC(C)c3cc(N)cc(C(F)(F)F)c3)c2cc1OC1CCOC1 | > 10 | > 10 | > 10 | 3.85 | 1.24 | 90.9 | 102 | 89 | 85.3 | 88 | 95 | 92.5 | 86.1 | 86.9 | 90.5 | 83.3 | 93.2 | 85.9 | 82.7 | 87 | viability, T/C [10]: 98.7%; viability, T/C [11]: 87%; viability, T/C [16]: 90.2%; viability, T/C [17]: 90.4%; viability, T/C [21]: 77.7%; viability, T/C [22]: 80.1%; viability, T/C [23]: 73%; viability, T/C [26]: 88.9%; viability, T/C [27]: 80.2%; viability, T/C [28]: 59.2%; viability, T/C [29]: 6.26%; viability, T/C [32]: 77.8%; viability, T/C [33]: 61.3%; viability, T/C [34]: 1.22%; viability, T/C [35]: 0.29%
2 | CC(C)NCC(C(=O)N1CCN(c2ncnc3c2C(C)CC3O)CC1)c1ccc(Cl)cc1 (stereo unspecified) + C=CC(=O)N1CCN(c2nc(=O)n(-c3c(C)ccnc3C(C)C)c3nc(-c4c(O)cccc4F)c(F)cc23)C(C)C1 | > 10 | > 10 | > 10 | > 10 | > 10 | 98.2 | 105 | 92.1 | 98.6 | 97.4 | 92.6 | 91.7 | 96.4 | 96.9 | 99.9 | 93 | 98.1 | 105 | 98.7 | 102 | viability, T/C [10]: 98.4%; viability, T/C [11]: 97%; viability, T/C [16]: 89.2%; viability, T/C [17]: 89.8%; viability, T/C [21]: 86.1%; viability, T/C [22]: 92.5%; viability, T/C [23]: 91.2%; viability, T/C [26]: 95.5%; viability, T/C [27]: 98.1%; viability, T/C [28]: 93.8%; viability, T/C [29]: 88.4%; viability, T/C [32]: 92.1%; viability, T/C [33]: 85.4%; viability, T/C [34]: 93.4%; viability, T/C [35]: 94.7%
3 | C=CC(=O)N1CCN(c2nc(=O)n(-c3c(C)ccnc3C(C)C)c3nc(-c4c(O)cccc4F)c(F)cc23)C(C)C1 (stereo unspecified) |  |  |  |  |  |  |  |  |  |  |  |  |  |  |  |  |  |  |  |  | viability, T/C (compound 0.1 µM): 100% [middle of 17 runs]; IC50 [36]: > 10 µM; IC50 [37]: > 10 µM; IC50 [38]: > 10 µM
4 | CCN1CCN(Cc2ccc(Nc3ncc(F)c(-c4cc(F)c5nc(C)n(C(C)C)c5c4)n3)nc2)CC1 + CC1OCC2(CCN(c3cnc(Sc4ccnc(N)c4Cl)c(N)n3)CC2)C1N | 0.526 | 0.483 | 0.336 | 0.0482 | 0.1 | 99.2 | 92.4 | 61.7 | 35.3 | 87.5 | 75.5 | 62.6 | 30.6 | 81.2 | 69.2 | 52.5 | 56.6 | 44 | 54.8 | 51.3 | viability, T/C [39]: 94.5%; viability, T/C [40]: 92.5%; viability, T/C [41]: 93.9%; viability, T/C [42]: 91.2%; viability, T/C [43]: 82.7%; viability, T/C [44]: 94.3%; viability, T/C [21]: 28.8%; viability, T/C [45]: 54.2%; viability, T/C [46]: 49.7%; viability, T/C [26]: 28.6%; viability, T/C [27]: 26.8%; viability, T/C [47]: 62.5%; viability, T/C [48]: 65.8%; viability, T/C [32]: 35.5%; viability, T/C [33]: 13.5%
5 | CC1OCC2(CCN(c3cnc(Sc4ccnc(N)c4Cl)c(N)n3)CC2)C1N (stereo unspecified) |  |  |  |  |  |  |  |  |  |  |  |  |  |  |  |  |  |  |  |  | viability, T/C (compound 0.0316 µM): 91.3% and 92.3% and 111%; viability, T/C (compound 0.1 µM): 96.8% [middle of 19 runs]; viability, T/C (compound 1 µM): 82.1% [middle of 19 runs]; IC50 [36]: > 10 µM; IC50 [37]: > 10 µM; IC50 [38]: > 10 µM and 3.88 µM; IC50 (curve of compound): > 10 µM
6 | Cn1ncnc1[C@H]1c2n[nH]c(=O)c3cc(F)cc(c23)N[C@@H]1c1ccc(F)cc1 + CC1OCC2(CCN(c3cnc(Sc4ccnc(N)c4Cl)c(N)n3)CC2)C1N | > 0.1 | > 0.1 | > 0.1 | > 0.1 | > 0.1 | 101 | 98.9 |  |  | 78.3 | 90.6 |  |  | 83.9 | 80.9 |  | 76.9 | 74.1 | 67.1 | 57.2 | viability, T/C (second compound 0.1 µM, first compound 0.000316 µM): 98%; viability, T/C (second compound 0.1 µM, first compound 0.001 µM): 102%; viability, T/C [39]: 100%; viability, T/C [40]: 98%; viability, T/C (second compound 0.316 µM, first compound 0.000316 µM): 89.5%; viability, T/C (second compound 0.316 µM, first compound 0.001 µM): 93.8%; viability, T/C [41]: 79%; viability, T/C [42]: 78.8%; viability, T/C (second compound 1 µM, first compound 0.000316 µM): 82.4%; viability, T/C (second compound 1 µM, first compound 0.001 µM): 85.2%; viability, T/C [43]: 75.1%; viability, T/C [44]: 83.6%; viability, T/C (second compound 3.16 µM, first compound 0.000316 µM): 75.1%; viability, T/C (second compound 3.16 µM, first compound 0.001 µM): 77.4%; viability, T/C [45]: 70.5%; viability, T/C [46]: 74.5%; viability, T/C (second compound 10 µM, first compound 0.000316 µM): 68.5%; viability, T/C (second compound 10 µM, first compound 0.001 µM): 67.7%; viability, T/C [47]: 63.7%; viability, T/C [48]: 57.1%
7 | COC(=O)c1ccc2c(C(=Nc3ccc(N(C)C(=O)CN4CCN(C)CC4)cc3)c3ccccc3)c(O)[nH]c2c1 + CC1OCC2(CCN(c3cnc(Sc4ccnc(N)c4Cl)c(N)n3)CC2)C1N | > 10 | > 10 | > 10 | > 10 | 2.37 | 95.4 | 100 | 96 | 95 | 88.3 | 84.5 | 79.5 | 81.8 | 75.6 | 76.1 | 75.6 | 64.9 | 67.5 | 63.5 | 70 | viability, T/C [10]: 90.4%; viability, T/C [11]: 88.6%; viability, T/C [16]: 82%; viability, T/C [17]: 78.5%; viability, T/C [21]: 68.1%; viability, T/C [22]: 69.2%; viability, T/C [23]: 81.6%; viability, T/C [26]: 66%; viability, T/C [27]: 65.1%; viability, T/C [28]: 55.1%; viability, T/C [29]: 63%; viability, T/C [32]: 57.9%; viability, T/C [33]: 60.7%; viability, T/C [34]: 41.4%; viability, T/C [35]: 41.6%

Reference: PubChem BioAssay AID1963868 (Molecular Pharmacology Branch, DTP, NCI, 2024)
